Laboratory results from patent US20030096394A1, “Laccase activity enhancers” (priority 2001, published 2003).

Assays:
laccase (NS51003) = assay: Chicago Blue (Direct Blue 1) dye bleaching assay for laccase mediators; format: biochemical, Aspergillus sp.; conditions: potential mediator 0.1 micromole/ml, decrease in absorbance at 610 nm
Method: The Chicago Blue Dye, also known as Direct Blue 1 or DB 1, was used to identify these compounds. The Chicago Blue Dye is fully described by Schneider et al. in U.S. Pat. No. 5,885,304, which is hereby incorporated by reference, and has the following formula. [drawing 10]
Each of the test compounds (i.e., potential mediators) was dissolved in water, or in ethanol if the potential mediator was not water soluble, and then mixed with a phosphate buffer and a Chicago Blue solution. […] The change in the absorbance at A610 nm was measured immediately using a UV-VIS spectrophotometer (UV-1201, Shimadzu Scientific Instruments) after the enzyme was added. The decrease in absorbance was recorded at 30-second intervals for 5 minutes and was used to estimate the efficiency of the mediator.
Experiments were conducted at pH levels of 5.5 and 7.0. The last column gives the decrease in absorbance at 610 nm. The larger the decrease in absorbance at 610 nm, the better is the ability to discolor the dye.

[1] = Appearance of potential mediator in water; format: physicochemical
[2] = system: laccase (NS51003, Novozymes A/S) and xylanase (Pulpzyme HC, Novozymes A/S); assay: Bleaching of Chicago Blue at pH 7.0 with laccase and xylanase combination; format: biochemical; conditions: mediator 20 μM
Method: In the following example, the enzyme enhancing agent N-benzylidenebenzylamine was used as a mediator for a laccase to enhance the bleaching of Chicago Blue at pH 7.0 in the presence of a laccase and a xylanase.
The activity of the xylanase (Pulpzyme HC, Novozymes A/S) is 1000 units per ml enzyme solution. One xylanase unit is defined as the amount of enzyme which, under standard conditions (pH 9.0, 50° C., 30 minutes of incubation), release one micromole of the dye from a dyed RBB xylan.
N-Benzylidenebenzylamine was dissolved in ethanol and then mixed with a phosphate buffer and a Chicago Blue solution. A solution of laccase (NS51003, Novozymes A/S) and xylanase (Pulpzyme HC, Novozymes A/S) was added to make 1 ml of the final solution, containing 20 uM of the mediator, 20 mM buffer at pH 7.0 and Chicago Blue solution, with absorbance at A610 nm between 0.6 to 0.8. After the enzyme was added, the change in the absorbance was measured immediately using a UV spectrophotometer (UV-1201, Shimadzu Scientific Instruments). The decrease in absorbance was recorded after 3 minutes and was used to estimate the results of bleaching.

Structure (SMILES) | ΔmA610 (3 min) (laccase (NS51003); pH 5.5) | Appearance in water ([1]; Table 1 (pH 5.5 series)) | further results
C(=NCc1ccccc1)c1ccccc1 [N-benzylidene benzylamine] | 28 | clear | ΔmA610 (3 min) (laccase (NS51003); pH 7.0): 2; Appearance in water ([1]; Table 2 (pH 7.0 series)): clear; mA610 (3 min) ([2]; laccase 0% v/v, xylanase 0.5% v/v): 112; mA610 (3 min) ([2]; laccase 0.5% v/v, xylanase 0% v/v): 11; mA610 (3 min) ([2]; laccase 0.5% v/v, xylanase 0.5% v/v): 163
O=C(O)C=Cc1ccc([N+](=O)[O-])cc1 [4-Nitrocinnamic acid] | 0 | cloudy | 
COc1ccc(C=CC(=O)O)cc1O [3-Hydroxy-4-methoxycinnamic acid] | 94 | clear | 
COc1ccc(CO)cc1OC [Veratryl alcohol] | 3 | clear | 
Nc1nc(N)nc(N)n1 [Melamine] | 128 | cloudy | 
O=C1Nc2ccccc2C1=O [Isatin] | 6 | clear | 
O=C(O)c1ccccc1O [Salicylic acid] | 11 | clear | 
COc1cccc(C=CC(=O)O)c1 [3-Methoxycinnamic acid] | 4 | clear | 
COc1ccc(C=CC(=O)O)cc1OC [3,4-Dimethoxycinnamic acid] | 0 | clear | 
COc1ccc(C=CC(=O)O)cc1 [4-Methoxycinnamic acid] | 6 | cloudy | 
O=C(O)C=Cc1ccc(Cl)cc1 [4-Chlorocinnamic acid] | 13 | cloudy | 
O=C(O)C=Cc1cccc(Cl)c1 [3-Chlorocinnamic acid] | 8 | cloudy | 
Nc1ccccn1 [2-Aminopyridine] | 3 | light brown | ΔmA610 (3 min) (laccase (NS51003); pH 7.0): 2; Appearance in water ([1]; Table 2 (pH 7.0 series)): light brown
O=C(O)C=Cc1ccccc1O [2-Hydroxycinnamic acid] | 5 | clear | 
CCOC(=O)c1ccccc1O [Ethyl Salicylate] | 2 | cloudy | 
COc1cc(C=CC(=O)O)ccc1O [4-Hydroxy-3-methoxycinnamic acid] | 441 |  | 
COc1cc(C=CC(=O)O)cc(OC)c1OC [3,4,5-Trimethoxycinnamic acid] | 5 | cloudy | 
O=C(O)C=Cc1ccccc1 [Cinnamic acid] | 3 | clear | 
Nc1ccc(C=CC(=O)O)cc1 [4-Aminocinnamic acid] | 43 | clear | 
O=C(O)C=Cc1ccc(O)cc1 [4-Hydroxycinnamic acid] | 42 | clear | 
O=C(O)C=Cc1ccccc1Cl [2-Chlorocinnamic acid] | 9 | cloudy | 
O=C(O)C=Cc1cccc(O)c1 [3-Hydroxycinnamic acid] | 7 | clear | 
COc1cc(C=CC(=O)O)cc(OC)c1O [3,5-Dimethoxy-4-hydroxycinnamic acid] | 491 | clear | 
CN(C)c1ccc(C=CC(=O)O)cc1 [4-(Dimethylamino)cinnamic acid] | 519 | clear, yellow | 
